Data from patent US5891896A, “Tri-substituted phenyl derivatives useful as PDE IV inhibitors” (Celltech Therapeutics Ltd., priority 1995, dated 1999).
Structures can show the parent of a compound that is named as a salt.

What was measured:
rat hepatocytes = test: Rat hepatocyte metabolism (compound remaining, mass spectroscopy); type: in vitro ADME
Experimental: (§1) 2. Rat Hepatocyte Metabolism
(§2) The quantity of compound remaining after a fixed period of time was then determined using mass spectroscopy.

[1] = as above; type: in vitro ADME; settings: rat hepatocytes, read-out: compound remaining at the end of the period
Experimental: as §1, §2

human PDE IVA = biological target: T1, human PDE IVA (Homo sapiens, UniProt P27815); test: Isolated recombinant human PDE IVA enzyme, inhibition of phosphodiesterase activity ([3H]-cAMP); type: biochemical; settings: 0.1 μM [3H]-cAMP, pH 7.5, 30° C.
T1 construct: made in house; host or cells: yeast (inducible vector)
Description: 1. Isolated Recombinant Human PDE IVA Enzyme
A gene encoding human PDE IV has been cloned from human monocytes (Livi, et al., 1990, Molecular and Cellular Biology, 10, 2678). Using similar procedures we have cloned human PDE IV genes from a number of sources including eosinophils, neutrophils, lymphocytes, monocytes, brain and neuronal tissues. These genes have been transfected into yeast using an inducible vector and various recombinant proteins have been expressed which have the biochemical characteristics of PDE IV (Beavo and Reifsnyder, 1990, TIPS, 11, 150). These recombinant enzymes, particularly the human eosinophil recombinant PDE IVA, have been used as the basis of a screen for potent, selective PDE IV inhibitors.
The enzymes were purified to isoenzyme homogeneity using standard chromatographic techniques.
Phosphodiesterase activity was assayed as follows. The reaction was conducted in 150 μl of standard mixture containing (final concentrations): 50 mM 2-[[tris(hydroxymethyl)methyl]amino]-1-ethanesulphonic acid (TES) --NaOH buffer (pH 7.5), 10 mM MgCl2, 0.1 μM [^3 H]-cAMP and vehicle or various concentrations of the test compounds. […] Recovery of [^3 H]-5'AMP was determined using the [^14 C]-5'AMP and all assays were conducted in the linear range of the reaction. Results were expressed as IC50 values.

T1 sequence (P27815 whole entry): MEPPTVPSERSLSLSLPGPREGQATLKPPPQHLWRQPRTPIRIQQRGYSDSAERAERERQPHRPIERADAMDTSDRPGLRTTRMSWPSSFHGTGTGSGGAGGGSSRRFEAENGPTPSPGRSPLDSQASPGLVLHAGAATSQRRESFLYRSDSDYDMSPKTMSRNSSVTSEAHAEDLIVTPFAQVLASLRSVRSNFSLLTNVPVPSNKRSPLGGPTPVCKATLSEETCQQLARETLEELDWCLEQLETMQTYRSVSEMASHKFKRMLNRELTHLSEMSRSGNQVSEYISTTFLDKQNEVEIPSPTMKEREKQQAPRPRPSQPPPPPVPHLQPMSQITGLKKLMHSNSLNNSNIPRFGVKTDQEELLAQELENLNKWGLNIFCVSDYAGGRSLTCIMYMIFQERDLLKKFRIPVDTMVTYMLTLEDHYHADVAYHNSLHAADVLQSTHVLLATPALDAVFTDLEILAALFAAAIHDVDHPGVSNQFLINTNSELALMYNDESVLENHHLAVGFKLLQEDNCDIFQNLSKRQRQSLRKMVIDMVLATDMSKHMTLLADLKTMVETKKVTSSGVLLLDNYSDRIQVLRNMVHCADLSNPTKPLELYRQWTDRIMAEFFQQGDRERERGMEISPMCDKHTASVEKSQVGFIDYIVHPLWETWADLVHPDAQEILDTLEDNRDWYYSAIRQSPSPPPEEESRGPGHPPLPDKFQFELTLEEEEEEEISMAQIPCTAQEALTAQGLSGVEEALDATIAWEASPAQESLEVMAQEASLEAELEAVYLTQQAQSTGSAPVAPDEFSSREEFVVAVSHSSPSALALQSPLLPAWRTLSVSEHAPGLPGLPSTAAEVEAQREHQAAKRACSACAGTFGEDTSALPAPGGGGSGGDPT

| metabolism after 3 h (in words) (rat hepatocytes) | remaining at 3 h [1] [%] | IC50 (human PDE IVA) [nM] | compound remaining at the end of the period (rat hepatocytes; 3 h) [%] | Compound |
| --- | --- | --- | --- | --- |
| substantially unmetabolised | ≥ 80 | 2 | – | COc1ccc([C@H](Cc2ccncc2)c2cccc(NS(=O)(=O)c3ccccc3)c2)cc1OC1Cc2ccccc2C1 [Example 2, hydrochloride] |
| substantially unmetabolised | – | 34 | ≥ 80 | (R)-N-[4-{1-(3-(2-Indanyloxy)-4-methoxyphenyl)-2-(4-pyridyl)ethyl}phenyl]-N'-ethylurea hydrochloride [Example 3] |
